Results taken from patent publication US10902592B2, “Analysis of images of biological material” (Q-linea AB, priority 2016, dated 2021).

What was measured:
Format in all cases: cell-based
E. coli = test: Microscopy of E. coli grown in presence of antibiotics (FIGS. 7a-d); conditions: for morphological change of the pathogen: E. coli grown for three hours in presence of the antibiotic, microphotographs
From the text: (§1) FIGS. 7a to 7j show the effect of antibiotics on the morphology of various pathogens. The microphotographs in a) to d) show E. coli grown for three hours either a) in absence of any antibiotics, b) and c) in presence of the antibiotic ceftazidime in different concentrations, and d) or in presence of the antibiotic meropenem. It is clear that the morphological change is not only dependent on the type of antibiotics but is also dose dependent. […] The strain of E. coli shown in these Figures is meropenem sensitive. The microphotographs in e) to g) show P.aureginosa grown for three hours either e) in absence of any antibiotics, f) in presence of the antibiotic ceftazidime or g) in presence of the antibiotic meropenem. […] The P.aureginosa strain shown is meropenem sensitive. The microphotographs of h) to j) show P. mirabilis grown for three hours either h) in absence of any antibiotics, i) in presence of the antibiotic ceftazidime or j) in presence of the antibiotic meropenem. […] The P. mirabilis strain shown is meropenem sensitive.

P.aureginosa = test: Microscopy of P.aureginosa grown in presence of antibiotics (FIGS. 7e-g); conditions: for morphological change of the pathogen: P.aureginosa grown for three hours in presence of the antibiotic, microphotographs
From the text: as §1

P. mirabilis = test: Microscopy of P. mirabilis grown in presence of antibiotics (FIGS. 7h-j); conditions: for morphological change of the pathogen: P. mirabilis grown for three hours in presence of the antibiotic, microphotographs
From the text: as §1

## C[C@@H](O)[C@H]1C(=O)N2C(C(=O)O)=C(S[C@@H]3CN[C@H](C(=O)N(C)C)C3)[C@H](C)[C@H]12 [meropenem]
E. coli
  morphological change of the pathogen: “swelling” of the pathogen
E. coli; E. coli strain shown in the Figures
  sensitivity of the strain shown to the antibiotic: sensitive
P.aureginosa
  morphological change of the pathogen: the same morphological change occurs
P.aureginosa; P.aureginosa strain shown
  sensitivity of the strain shown to the antibiotic: sensitive
P. mirabilis
  morphological change of the pathogen: the same morphological change occurs
P. mirabilis; P. mirabilis strain shown
  sensitivity of the strain shown to the antibiotic: sensitive

## CC(C)(O/N=C(\C(=O)N[C@@H]1C(=O)N2C(C(=O)[O-])=C(C[n+]3ccccc3)CS[C@H]12)c1csc(N)n1)C(=O)O [ceftazidime]
E. coli
  morphological change of the pathogen: thread-like change in morphology
P.aureginosa
  morphological change of the pathogen: “cluster threads” instead of individual threads
P. mirabilis
  morphological change of the pathogen: a combination of “swelling” and threads
